Experimental data as given in patent publication US20230414554A1, “COMPOUNDS FOR TREATING HEPATOCELLULAR CARCINOMA” (SERVICIO ANDALUZ DE SALUD, priority 2020, published 2023).

Experiments:
[1] = test system: Hep3b-induced xenograft tumors; assay: Hep3b xenograft model, tumor growth and necrosis; format: in vivo, nude mice; conditions: sorafenib 30 mg/kg in drinking water for 3 days; histopathology vs vehicle
Protocol: For in vitro and in vivo administrations, pladienolide-B (Santa Cruz, Heidelberg, Germany) was resuspended in DMSO (Sigma-Aldrich, Madrid, Spain). For in vitro administration, sorafenib (LC Laboratories, Woburn, USA) was dissolved in DMSO. […] For in vivo tests, sorafenib was dissolved in Cremophor EL/ethanol (50:50).
Experiments with xenograft mice were conducted in accordance with the European Animal Care Regulations under the approval of the university/regional government research ethics committees. 5×10^6 Hep3b cells (n=16 mice; n=32 tumors) in 50 μl of BME (Trevigen, Gaithersburg, MD) were subcutaneously grafted on both flanks of eight-week-old male Fox1nu/Foxn1nu nude mice (Janvier Labs, Le Genest-Saint-Isle, France). Tumor growth was monitored twice a week for 2 months by means of using a digital caliper. In the third week after grafting, when tumors were visible, the mice were treated with vehicle, pladienolide B, sorafenib, or the combination thereof (n=4 mice/treatment; n=8 tumors/treatment). Sorafenib (30 mg/kg) was administered dissolved in drinking water for 3 days; whereas the water of the remaining mice was treated with cremophor/ethanol vehicle. Pladienolide-B (10^−8M) was injected intratumorally on the second day of treatment with sorafenib. […] Tumor necrosis was evaluated after hematoxylin and eosin staining by expert pathologists.

[2] = test system: THLE-2 cells; assay: Cell proliferation/viability of cell line derived from normal hepatocytes; format: cell-based; conditions: after 72 h; pladienolide-B 10^−8 M, sorafenib 5 nM
Protocol: Cell lines and treatments HepG2, Hep3b, and SNU-387 (HB-8065) cell lines were purchased from ATCC (Manassas, USA) and cultured as recommended. The cells were kept at 37° C. and 5% CO2, and periodically validated by means of STR analysis (GenePrint, Promega, Barcelona, Spain) and analyzed to detect mycoplasma contamination. THLE-2 cells were cultured according to the manufacturer's instructions. […] Positive controls [IGF-1 (10^−6M)] and negative controls [Paclitaxel (10^−7M)] were used.
The determination of cell proliferation, migration, apoptosis, clone and tumorsphere formation was performed as published previously.

## CNC(=O)c1cc(Oc2ccc(NC(=O)Nc3ccc(Cl)c(C(F)(F)F)c3)cc2)ccn1 [sorafenib, reference compound]
[1]
  tumor necrosis: greater necrosis than tumors treated with vehicle
[2]
  viability of THLE-2 cells: significantly reduced same
